# From patent publication US20210284952A1, “METHODS OF APPLYING ACETATE TOXICITY AND INDUCING ACETATE UPTAKE IN MICROALGAE CULTURES” (HELIAE DEVELOPMENT LLC, priority 2016, published 2021)
# Like-named read-outs stand apart in the source and are kept apart here.
# Assays:
# Chlorella sp. HS26 = settings: 2.4 g/L
# Description: This experiment was conducted to determine the effect of different culture medium pH levels on the growth of Chlorella sp. HS26 at a constant culture medium acetate concentration. Duplicate 100 ml flasks of axenic cultures of Chlorella were adjusted to initial pH levels of 2.5, 3.5, 4.5, 5.5, 6.5, 7.0, 7.5, 8.5, 9.5, and 10.5. The culture pH was adjusted using either hydrochloric acid (HCl) or sodium hydroxide (NaOH). […] Samples of the flask culture were taken initially and every other day over a six day period (144 hours).
# [1] = system: Aurantiochytrium sp. HS399
# Description: Cultures of Aurantiochytrium sp. […] 100 mL volume cultures were prepared in 250 mL flasks, and cultured at a pH of 7.0, temperature of 27° C., a shaking frequency of 180 rpm, in the dark for 5 days (120 hours). The cultures were inoculated at the same cell density.
# [2] = system: Aurantiochytrium sp. HS399; settings: for Cell Dry Weight of Aurantiochytrium: 2 g/L Na Acetate
# Description: This experiment was conducted to determine the effect of different culture pH levels on the growth of Aurantiochytrium sp. HS399. Duplicate 100 ml flasks of axenic cultures of Aurantiochytrium were adjusted to initial pH levels of 4, 5, 6, 7, and 8. The culture pH was adjusted using either hydrochloric acid (HCl) or potassium hydroxide (KOH). […] Samples of the flask culture were taken initially and every other day over a five-day period (120 hours).
smiles,measurement,setting,value
"CC(=O)[O-].[Na+] [Sodium Acetate, sodium acetate]",Cell Dry Weight of Chlorella,"Chlorella sp. HS26; initial pH 8.5, 0 h",0.6 g/L
same,Cell Dry Weight of Chlorella,"Chlorella sp. HS26; initial pH 8.5, 24 h",0.8 g/L
same,Cell Dry Weight of Chlorella,"Chlorella sp. HS26; initial pH 8.5, 48 h",2.4 g/L
same,Cell Dry Weight of Chlorella,"Chlorella sp. HS26; initial pH 8.5, 96 h",4.2 g/L
same,Cell Dry Weight of Chlorella,"Chlorella sp. HS26; initial pH 8.5, 144 h",6.0 g/L
same,Cell Dry Weight of Chlorella,"Chlorella sp. HS26; initial pH 9.5, 0 h",0.6 g/L
same,Cell Dry Weight of Chlorella,"Chlorella sp. HS26; initial pH 9.5, 24 h",0.8 g/L
same,Cell Dry Weight of Chlorella,"Chlorella sp. HS26; initial pH 9.5, 48 h",1.2 g/L
same,Cell Dry Weight of Chlorella,"Chlorella sp. HS26; initial pH 9.5, 96 h",4.3 g/L
same,Cell Dry Weight of Chlorella,"Chlorella sp. HS26; initial pH 9.5, 144 h",6.1 g/L
same,Cell Dry Weight of Chlorella,"Chlorella sp. HS26; initial pH 10.5, 0 h",0.6 g/L
same,Cell Dry Weight of Chlorella,"Chlorella sp. HS26; initial pH 10.5, 24 h",0.9 g/L
same,Cell Dry Weight of Chlorella,"Chlorella sp. HS26; initial pH 10.5, 48 h",1.4 g/L
same,Cell Dry Weight of Chlorella,"Chlorella sp. HS26; initial pH 10.5, 96 h",4.3 g/L
same,Cell Dry Weight of Chlorella,"Chlorella sp. HS26; initial pH 10.5, 144 h",6.1 g/L
same,growth,[1]; concentrations of sodium acetate below 100 g/L,grew well
same,Cell Dry Weight of Aurantiochytrium,"[1]; sodium acetate 5 g/L, 0 h",2.7 g/L
same,Cell Dry Weight of Aurantiochytrium,"[1]; sodium acetate 5 g/L, 24 h",8.01 g/L
same,Cell Dry Weight of Aurantiochytrium,"[1]; sodium acetate 5 g/L, 40 h",8.13 g/L
same,Cell Dry Weight of Aurantiochytrium,"[1]; sodium acetate 5 g/L, 72 h",7.49 g/L
same,Cell Dry Weight of Aurantiochytrium,"[1]; sodium acetate 5 g/L, 96 h",7.38 g/L
same,Cell Dry Weight of Aurantiochytrium,"[1]; sodium acetate 5 g/L, 120 h",7.6 g/L
same,Cell Dry Weight of Aurantiochytrium,"[1]; sodium acetate 10 g/L, 0 h",2.7 g/L
same,Cell Dry Weight of Aurantiochytrium,"[1]; sodium acetate 10 g/L, 24 h",8.29 g/L
same,Cell Dry Weight of Aurantiochytrium,"[1]; sodium acetate 10 g/L, 40 h",9.69 g/L
same,Cell Dry Weight of Aurantiochytrium,"[1]; sodium acetate 10 g/L, 72 h",10.35 g/L
same,Cell Dry Weight of Aurantiochytrium,"[1]; sodium acetate 10 g/L, 96 h",10 g/L
same,Cell Dry Weight of Aurantiochytrium,"[1]; sodium acetate 10 g/L, 120 h",10.9 g/L
same,Cell Dry Weight of Aurantiochytrium,"[1]; sodium acetate 20 g/L, 0 h",2.7 g/L
same,Cell Dry Weight of Aurantiochytrium,"[1]; sodium acetate 20 g/L, 24 h",7.35 g/L
same,Cell Dry Weight of Aurantiochytrium,"[1]; sodium acetate 20 g/L, 40 h",10.45 g/L
same,Cell Dry Weight of Aurantiochytrium,"[1]; sodium acetate 20 g/L, 72 h",13.7 g/L
same,Cell Dry Weight of Aurantiochytrium,"[1]; sodium acetate 20 g/L, 96 h",13.11 g/L
same,Cell Dry Weight of Aurantiochytrium,"[1]; sodium acetate 20 g/L, 120 h",13.55 g/L
same,Cell Dry Weight of Aurantiochytrium,"[1]; sodium acetate 40 g/L, 0 h",2.7 g/L
same,Cell Dry Weight of Aurantiochytrium,"[1]; sodium acetate 40 g/L, 24 h",7.06 g/L
same,Cell Dry Weight of Aurantiochytrium,"[1]; sodium acetate 40 g/L, 40 h",11.84 g/L
same,Cell Dry Weight of Aurantiochytrium,"[1]; sodium acetate 40 g/L, 72 h",15.78 g/L
same,Cell Dry Weight of Aurantiochytrium,"[1]; sodium acetate 40 g/L, 96 h",18.9 g/L
same,Cell Dry Weight of Aurantiochytrium,"[1]; sodium acetate 40 g/L, 120 h",19.65 g/L
same,Cell Dry Weight of Aurantiochytrium,"[1]; sodium acetate 100 g/L, 0 h",2.7 g/L
same,Cell Dry Weight of Aurantiochytrium,"[1]; sodium acetate 100 g/L, 24 h",1.7 g/L
same,Cell Dry Weight of Aurantiochytrium,"[1]; sodium acetate 100 g/L, 40 h",0.7 g/L
same,acetate concentration tolerance,"[1]; sodium acetate in the culture, pH 7.0",around 100 g/L
same,Cell Dry Weight of Aurantiochytrium,"[2]; pH 4, 0 h",0.28 g/L
same,Cell Dry Weight of Aurantiochytrium,"[2]; pH 4, 24 h",1.1 g/L
same,Cell Dry Weight of Aurantiochytrium,"[2]; pH 4, 48 h",0.79 g/L
same,Cell Dry Weight of Aurantiochytrium,"[2]; pH 4, 72 h",0.51 g/L
same,Cell Dry Weight of Aurantiochytrium,"[2]; pH 5, 0 h",0.25 g/L
same,Cell Dry Weight of Aurantiochytrium,"[2]; pH 5, 24 h",5.15 + g/L
same,Cell Dry Weight of Aurantiochytrium,"[2]; pH 5, 48 h",15.2 g/L
same,Cell Dry Weight of Aurantiochytrium,"[2]; pH 5, 72 h",19.4 g/L
same,Cell Dry Weight of Aurantiochytrium,"[2]; pH 6, 0 h",0.18 g/L
same,Cell Dry Weight of Aurantiochytrium,"[2]; pH 6, 24 h",5.1 g/L
same,Cell Dry Weight of Aurantiochytrium,"[2]; pH 6, 48 h",11.55 g/L
same,Cell Dry Weight of Aurantiochytrium,"[2]; pH 6, 72 h",16 g/L
same,Cell Dry Weight of Aurantiochytrium,"[2]; pH 7, 0 h",0.3 g/L
same,Cell Dry Weight of Aurantiochytrium,"[2]; pH 7, 24 h",12.25 g/L
same,Cell Dry Weight of Aurantiochytrium,"[2]; pH 7, 48 h",10.8 g/L
same,Cell Dry Weight of Aurantiochytrium,"[2]; pH 7, 72 h",15.7 g/L
same,Cell Dry Weight of Aurantiochytrium,"[2]; pH 8, 0 h",0.25 g/L
same,Cell Dry Weight of Aurantiochytrium,"[2]; pH 8, 24 h",9.1 g/L
same,Cell Dry Weight of Aurantiochytrium,"[2]; pH 8, 48 h",8.95 g/L
same,Cell Dry Weight of Aurantiochytrium,"[2]; pH 8, 72 h",12.6 g/L
same,cell dry weight over time,"[2]; 2 g/L sodium acetate, pH of 4",did not increase over time
